We go through seven molecules from paper PMC8275550, “Developmental Neurotoxicity of Fipronil and Rotenone on a Human Neuronal In Vitro Test System” (Neurotoxicity Research, 2021).

One data set has as its system NT2 neurons. The experiment in a line: cells. The conditions noted are these: for Effect on neurite outgrowth, endpoint specific control compounds: concentration-response curves, supplementary Fig. 1. It is filed as cell-based, human. The text has this: Two photographs/well at × 20 magnification were taken.
The subject of data set [1] is NT2 precursor cells. The conditions noted are these: 100 nM cytochalasin D, 44 h, without affecting viability; ref Stern et al. [2014]; cited from earlier work.
Data set [2] concerns NT2 precursor cells. Description: cells. The data set is classed as cell-based, human. The procedure: (§1) As established before (Stern et al. [2014]), NT2 precursor cells were seeded in 96-mm bacteriological grade Petri dishes (Greiner, Hamburg, Germany) at a density of 4 × 10^6–5 × 10^6 cells per dish. Within 24 h, cells formed free-floating spherical aggregates of 300–800 µm diameter. On the first day, 10 ml of culture medium was added to each Petri dish. On the next days, medium with 10 μM retinoic acid (RA) was added and changed every 2–3 days by transferring the cell suspension to centrifuge tubes and centrifuge at 200 × g for 7 min. After 9 days in culture, aggregates were gently resuspended using a Pasteur pipette, and seeded at 60,000 cells per well into black 96-well plates with flat transparent bottom (Nunc). Plates were lined with poly-D-lysine and laminin (10 µg/ml each), equipped with silicone stoppers from the Oris Cell Migration Assay (AMS Biotechnology, Abingdon, UK). Cells were allowed to adhere overnight. On the next day, stoppers were pulled leaving a monolayer of cells with a circular hole of 2-mm diameter. […] After one wash in PBS, cells were fixed for 15 min in PFA, washed twice in PBS-T and stained with DAPI (0.5 µg/ml) for 5 min, followed by two washes in PBS. A black 96-hole plastic mask leaving a central circular area of 2-mm diameter for each well was clipped to the bottom of the plate. This allows viewing only those cells that had migrated into the free areas left by the silicone stoppers during seeding (Fig. 1b). Migration was quantified by taking two photographs of each well and measuring the distance of the migration front from the black margin of the mask in using ImageJ. Occasional asymmetries caused by slight inaccuracies of silicone stopper placement were compensated by averaging measurements in four quadrants per well. […] Average null-migration values were subtracted from migrated distance before evaluation.

For data set [3] the following is noted: cited from earlier work.
The nature of data set [4]: Resazurin reduction viability assay in the cell migration assay. The conditions noted are these: human. It is filed as cell-based. The procedure: as §1
Background: Resazurin is reduced to fluorescent resorufin, in cell work by metabolically active cells.

The test system of data set [5] is differentiating NT2 cells. The experiment in a line: cells. The data set is classed as cell-based, human. The procedure:
(§2) As established in our previous study (Stern et al. [2014]), cells were seeded into 96-well plates (Corning Costar, Kaiserslautern, Germany) at 80,000 cells per well and incubated in DMEM/F12 with 10 µM retinoic acid (RA) for 4 days (one media change). Cells were incubated for further 5 days (one media change) in media containing 10 µM RA and up to seven concentrations of a test compound. On day 9 (5-day exposition), cell viability was measured using a resazurin reduction assay (Trinova Biochem, Giessen, Germany). Subsequently, cells were fixed for 15 min in PFA and immunolabeled for ß-tubulin type III as above (Fig. 1a). For control purposes, photographs were taken at × 20 magnification as above. Neuronal differentiation was determined by measuring red fluorescence (excitation 568 nm, emission 603 nm) in a multiwell-plate reader (Infinite 200, TECAN, Germany). As a confirmation of the viability data, cell number was also quantified by measuring DAPI fluorescence (excitation 350 nm, emission 488 nm).

Data set [6] can be described thus: Resazurin reduction viability assay in the neuronal differentiation assay. It is filed as cell-based, human. The conditions noted are these: human. The procedure: as §2
The next data set is described as follows: in vitro. The conditions noted are these: human.
In data set [7] the test system is differentiating NT2 cells. The conditions noted are these: 333 µM sodium valproate; ref Stern et al. [2014]; cited from earlier work.
The test system of data set [8] is differentiating NT2 cells. Further details: method as in Stern et al. [2014]. The conditions noted are these: 333 µM sodium valproate; ref Stern et al. [2014]; cited from earlier work.
[9] abbreviates: yes = at least one concentration of rescuing compound with specific endpoint significantly less affected.
The mark [10] stands for this setting: co-applied with 2.4 µM rotenone.

“Also recorded” adds a separate entry of the source. Where two headings read alike, the source gives them in different places.

Description for in vitro: Dispersed cells were seeded into two identical poly-D-lysine (10 µg/ml) coated 96-well plates (Corning Costar, Kaiserslautern, Germany) at a density of 10,000 cells per well. Cultures were exposed to up to seven different concentrations of a test compound in DMEM/F12 (six technical replicates per concentration) for 24 h. One plate was immediately fixed in 4% paraformaldehyde in PBS (PFA) for 15 min. After 24 h, while a resazurin reduction assay (2 h) was performed on the other plate. […] Fixed cells were washed in PBS containing 0.1% Triton X100 (PBS-T) and immunolabeled for ß-tubulin type III (monoclonal anti ßtubIII, 1:20,000) using a red fluorescent secondary antibody (goat anti mouse-alexaFluor568, Invitrogen, Germany, 1:250) and DAPI (0.1 µg/ml) as nuclear counterstain. Cells were examined on a Zeiss Axiovert 200 inverted microscope equipped with a CoolSnap camera (Photometrics, Tucson, AZ, USA) and MetaMorph software (Molecular Devices, Sunnyvale, CA, USA), or a Zeiss Axiocam50 mono and Zeiss ZENlite 2.6 blue edition software. Two photographs/well at × 20 magnification were taken. Lengths of all neurites in the field of view were measured in ImageJ (http://imagej.nih.gov/ij) using the ‚segmented line ‘ tool (Fig. 1c) and divided by the number of ß-tubulin III-positive cells.

For the molecule `COc1cc2c(c(OC)c1OC)-c1ccc(OC)c(=O)cc1[C@@H](NC(C)=O)CC2` [Colchicine], the “Effect on neurite outgrowth, endpoint specific control compounds” value in the data set on NT2 neurons is given as “specifically inhibits neurite outgrowth”.

On to `C=C1[C@@H](C)[C@H]2[C@H](Cc3ccccc3)NC(=O)[C@]23[C@H](OC(C)=O)/C=C/[C@@](C)(O)C(=O)[C@@H](C)C/C=C/[C@H]3[C@@H]1O` [Cytochalasin D, [(1R,2R,3E,5R,7S,9E,11R,12S,14S,15R,16S)-16-Benzyl-5,12-dihydroxy-5,7,14-trimethyl-13-methylidene-6,18-dioxo-17-azatricyclo[9.7.0.0^1,15]octadeca-3,9-dien-2-yl] acetate], for which the activity at 0.1 µM with NT2 neurons (Homo sapiens, Neuron, 100 nM cytochalasin D, read-out: Neurite outgrowth (% of control), endpoint-specific control) was below 25%. The “Effect on neurite outgrowth, endpoint specific control compounds” value in the data set on NT2 neurons is recorded as “specifically inhibits neurite outgrowth”. Besides, in the data set on NT2 precursor cells [1], the “Effect on cell motility, null-migration reference” value is reported as “completely inhibits cell motility”.

As a reminder, the viability is the share of living cells, or the viability signal relative to a control. As to `N#Cc1nn(-c2c(Cl)cc(C(F)(F)F)cc2Cl)c(N)c1S(=O)(=O)C(F)(F)F` [Fipronil sulfone, 5-Amino-1-[2,6-dichloro-4-(trifluoromethyl)phenyl]-4-(trifluoromethylsulfonyl)pyrazole-3-carbonitrile], the “Concentrations with significant differences between viability and migration” value in the data set with NT2 precursor cells [2] (44 h exposure) is listed as at least 15.63 µM. In addition, in the data set on NT2 precursor cells [2] (Homo sapiens, 15.63 µM fipronil sulfone, read-out: Migration (% of control)), the activity at 15.63 µM was below 40%. Besides, the IC50 in the data set on NT2 precursor cells [2] (Homo sapiens, 44 h exposure, read-out: IC50 migration (spec. EP)) was 14.2 µM; with NT2 neurons (Homo sapiens, 24 h exposure, total neurite length/neuron, normalized to solvent control, read-out: IC50 neurite outgrowth (spec. EP)), 34 µM; in data set [4] (migration assay, 44 h exposure, > = highest tested concentration, read-out: IC50 general cytotoxicity (resazurin), unspec. EP), above 62.5 µM; in data set [5] (Homo sapiens, NT2, 120 h, 5 days exposure, read-out: IC50 neuronal differentiation (ß-tub III, spec. EP)) it was 9.77 µM; in [6] (differentiation assay, 5 days exposure, read-out: IC50 general cytotoxicity (resazurin), unspec. EP) it was 15.5 µM; in “in vitro”, 43 µM. The “Rescue by NAC, migration” value with NT2 precursor cells [2] (setting [9]) is on record as “yes”. Moreover, in the data set on NT2 precursor cells [2] (setting [9]), the “Rescue by Y-27632, migration” value is recorded as “Yes”. Also, the “Blood concentration in workers with occupational fipronil exposure” value in data set [3] (ref Herin et al. [2011]) is on record as “up to 0.1 µM”. Besides, in data set [3] (urban population of South Korea, ref Kim et al. [2019]), the “Concentration measured in umbilical cord blood” value was “up to 1.1 nM”. Besides, the viability was 85% in data set [4] (15.63 µM fipronil sulfone, read-out: Viability (% of control)) and around 100% in data set [6] (7.81 µM fipronil sulfone, read-out: General viability (% of control)). In data set [5] (Homo sapiens, NT2, 7.81 µM fipronil sulfone, read-out: Neuronal differentiation (% of control)), the activity at 7.81 µM worked out at 70%. Further, the “Rescue by NAC, neuronal differentiation” value in data set [5] (setting [9]) is “no”.

Turning to `CC(=O)N[C@@H](CS)C(=O)O` [NAC, (2R)-2-Acetamido-3-sulfanylpropanoic acid], the EC50 in the data set with NT2 precursor cells [2] (Homo sapiens, all three tested endpoints as worded in abstract, read-out: EC 50 ameliorating the inhibitory effects of fipronil on all three tested endpoints (abstract)) is 84 to 164 µM; in the data set on NT2 precursor cells [2] (Homo sapiens, co-applied with 15 µM fipronil sulfone, only slight alleviation, read-out: EC50 alleviation of fipronil sulfone-inhibited migration (NAC)) it was 84.6 µM; in the data set on NT2 precursor cells [2] (Homo sapiens, co-applied with 50 µM fipronil, read-out: EC50 alleviation of fipronil-inhibited migration), 161 µM; in data set [5] (Homo sapiens, NT2, co-applied with 15 µM fipronil, read-out: EC50 rescue of fipronil-inhibited neuronal differentiation) it was 94.7 µM. Moreover, the “Effect on rotenone inhibition of migration” value in the data set on NT2 precursor cells [2] (co-applied with 122 nM rotenone, any concentration) is on record as “could not be alleviated”. In the data set with NT2 precursor cells [2] (co-applied with 15 µM fipronil sulfone), the “Effect on fipronil sulfone inhibition of migration” value was “only slightly alleviated”. Moreover, the “Effect on fipronil-induced inhibition of migration” value in the data set on NT2 precursor cells [2] (co-applied with 50 µM fipronil) was “could completely counteract”. Also, the “Effect on rotenone-induced NT2 neurite outgrowth inhibition” value with NT2 neurons (setting [10]) is reported as “could not change”. In addition, the “Effect on fipronil inhibition of NT2 differentiation” value in data set [5] (370 µM NAC and higher, with 15 µM fipronil) is on record as “completely negated”. Besides, the “Effect on rotenone inhibition of ß-tubulin III-immunofluorescence” value in data set [5] (co-applied with 11 nM rotenone, any concentration) is recorded as “could not alleviate”.

`CCCC(CCC)C(=O)[O-].[Na+]` [Sodium valproate, Sodium; 2-propylpentanoate]: in data set [7], the “Neuronal differentiation (% of control), endpoint-specific control” value was “less than 50%”. For the same molecule, the “General viability (% of control), endpoint-specific control” value in data set [8] was “above 85%”.

In the case of `C[C@@H](N)[C@H]1CC[C@H](C(=O)Nc2ccncc2)CC1` [Y-27632, 4-[(1R)-1-Aminoethyl]-N-pyridin-4-ylcyclohexane-1-carboxamide], the activity at 50 µM with NT2 precursor cells [2] (Homo sapiens, 50 µM Y-27632, without affecting general viability, read-out: Precursor cell migration (% of control), endpoint-specific control) is above 125%; with NT2 neurons (Homo sapiens, Neuron, 50 µM Y-27632, without affecting general viability, read-out: Neurite outgrowth (% of control), endpoint-specific control), above 125%. For the same molecule, the EC50 in the data set on NT2 precursor cells [2] (Homo sapiens, co-applied with 122 nM rotenone, read-out: EC50 alleviation of rotenone-inhibited migration) turned out to be 8.3 µM; in the data set with NT2 precursor cells [2] (Homo sapiens, co-applied with 15 µM fipronil sulfone, read-out: EC50 alleviation of fipronil sulfone-inhibited migration (Y-27632)), 4.22 µM; in the data set on NT2 neurons (Homo sapiens, Neuron, co-applied with 2.4 µM rotenone, read-out: EC50 compensation of rotenone-inhibited neurite outgrowth) it was 12.1 µM. The “Effect on fipronil-induced inhibition of migration” value in the data set on NT2 precursor cells [2] (co-applied with 50 µM fipronil) is “could not alleviate; also recorded: could not be alleviated”. For the same molecule, in the data set with NT2 neurons (setting [10]), the “Effect on rotenone-induced NT2 neurite outgrowth inhibition” value was “could alleviate”.

As for `CC(C)=CCC/C(C)=C/CC/C(C)=C/CC[C@]1(C)CCc2c(C)c(O)c(C)c(C)c2O1` [α-tocotrienol, (2R)-2,5,7,8-Tetramethyl-2-[(3E,7E)-4,8,12-trimethyltrideca-3,7,11-trienyl]-3,4-dihydrochromen-6-ol], the “Effect on rotenone-induced NT2 neurite outgrowth inhibition” value in the data set on NT2 neurons (setting [10]) is “could not change”.
